Measurements: patent US11419913B2, “Pharmaceutical compositions for inhibiting inflammatory cytokines” (S.I.S. SHULOV INNOVATIVE SCIENCE LTD., priority 2018, dated 2022)
Marks after values point to notes of the source that are not given here. Where a SMILES comes first, the peptide text is derived from it.

Legend:
TNF alpha [1] = assay: Expression of TNF alpha by B6 macrophage cells treated with LPS and palmitic acid; assay type: cell-based, mouse
Experimental: Macrophages originating from C57BL/6 mice were cultured at a density of 200,000 cells/mL in a 24-well plate (500 μl wells) and incubated at 37° C. and 5% CO2 overnight. Following incubation, culture media in certain experimental groups were replaced with fresh media containing 100 ng/mL LPS, followed by three hours incubation. Then, the media (LPS-containing or LPS-free) in certain experimental groups were replaced with fresh media containing ZEP4 at concentrations ranging from 3.125 to 100 μg/ml, followed by one-hour incubation. Next, palmitic acid (PA, 200 μM) was added to the appropriate wells and the plates were incubated for additional 24 hours, then the amount of TNF alpha in each well was measured. Reduction in TNF alpha production in the treatment groups was calculated relative to cells treated with LPS and PA (CLP200).
Macrophages originating from C57BL/6 mice were cultured at a density of 200,000 cells/mL in a 24-well plate (500 μl wells) and incubated at 37° C. and 5% CO2 overnight. Following incubation, media were replaced with fresh media containing 100 ng/mL LPS, followed by three hours incubation. The LPS-containing media in the treatment groups were then replaced with fresh media containing ZEP4 at 50 μg/ml, followed by one-hour incubation. Then, aliquots of palmitic acid (100, 200 or 400 μM) were added to appropriate wells. The plates were incubated for additional 24 hour and the amount of TNF alpha in each well was measured. Reduction in TNF alpha production in the treatment groups was calculated relative to cells treated with LPS and PA, according to the PA concentration.
Macrophage cells originating from C57BL/6 mice were cultured at a density of 200,000 cells/mL in a 24-well plate (500 μl wells) and incubated at 37° C. and 5% CO2 overnight. Following incubation, media in certain experimental groups were replaced with fresh media containing 100 ng/mL LPS, followed by three hours incubation. Then, the media (LPS-containing or LPS-free) in certain experimental groups were replaced with fresh media containing ZEP3 at a concentration ranging from 3.125 to 100 μg/ml, followed by one-hour incubation. Next, palmitic acid (200 μM) aliquots were added to the appropriate wells and the plates were incubated for additional 24 hours, then the amount of TNF alpha in each well was measured. Reduction in TNF alpha production in the treatment groups was calculated relative to cells treated with LPS and PA.

[2] = system: oxazolone-induced atopic dermatitis (AD) mouse models; assay: Oxazolone-induced atopic dermatitis mouse model, clinical lesions; assay type: in vivo
Experimental: The effect of topical administration of ZEP3 (SEQ ID NO: 1), and its sodium salt form (ZEP3Na), and ZEP4 (SEQ ID NO: 2) was evaluated in oxazolone-induced atopic dermatitis (AD) mouse models. This model is widely used and well described in literature (Avci et al. 2013 Expert Opin Drug Discov. 8, 331-355; Petersen T. K. 2006, Basic Clin. Pharmacol. Toxicol. 99, 104-115) as an accepted animal model for evaluating drugs for AD therapy in humans.

TNF alpha [3] = assay: TNF alpha secretion in LPS treated human keratinocytes (ELISA); assay type: cell-based; details: compared with cells stimulated with LPS alone
Experimental: Methods: SCCE020 cells (EpiGRO™ Human Epidermal Keratinocytes) were grown in complete growth medium (EpiGRO™ Human Keratinocytes Complete Medium; Millipore Cat. #SCMK001) for 4 passages. At passage 5, cells were seeded (3*10^5 cells/well) in triplicates in a volume of 1 ml complete growth medium per well. Additional 3 control wells contained only medium without cells. Upon adherence, cell medium was replaced by basal medium containing L-Glutamine without supplements (starvation medium) and cells were starved overnight. The next day, 24 hours after seeding, the cells were treated with ZEP3 or ZEP3Na or appropriate diluent (PBS or DMSO). After 4 hours of incubation, LPS (from E. Coli 055: B5; Sigma Cat. #L6529-1MG) was added to the wells in final concentration of 20 or 30 μg/ml.
Cells were incubated for 24 hours in tissue culture incubator. After collecting cell supernatants from all wells, cells from treatment groups: 1, 2, 3, 8, 9, 10, 13, 14 (without DMSO groups) were pelleted and stored at −80° C. for further analyses. The cells were collected from as following: upon supernatants collection, the wells were rinsed with trypsin, then incubated with trypsin until they detached from the plate surface, centrifuged, washed with PBS and stored as a cell pellet. TNF-α concentration in the supernatants was measured by ELISA (Quantikine HS ELISA; R&D Systems Cat. #HSTA00D), in 5 replicates.
TNF alpha concentration in the samples was calculated according to the standard curve trend line equation: =0.063x+0.1718. Percent inhibition of TNF alpha production was calculated in each treatment group in comparison to the corresponding control group (same conditions, without peptide).

[4] = Oxazolone-induced atopic dermatitis mouse model, tolerability and bodyweights
Experimental: Method: Animals were sensitized by topical administration of oxazolone 2% in ethanol on the back at Day 0 after shaving and depilation of the animals (sensitization phase). Then a challenge was performed one week later by topical administration of oxazolone 1% in ethanol on the back and on right ear every 2 days at 10 occasions namely for total 3 weeks. The tested compounds were applied during the challenge phase every 2 days via the topical route as ready to use cream formulations. The surface of application was the same as for challenge (back+ear). 100 μL were deposited on the back and the back was smoothly massaged. Then, remaining formulation on finger glove was deposited on the internal face of the ear. Every other day, back skin and ears thickness were measured using caliper; and the following clinical scores were recorded from back skin: erythema and scaling. Animals were also weighed every other day (approximate bodyweights of a mouse at startup is about 20 g).
The formulations used for topical administration of the tested compound were: ZEP3 1% cream having pH 7.1 and comprising: Propylene glycol, Polysorbate 80, Edetate Disodium, Silicon dioxide (syloid), Methylparaben, White petrolatum, Isopropyl Myristate, Cetyl Alcohol and Glyceryl Monostearate. ZEP3Na 1% cream having pH 8.0 and comprising: Propylene glycol, Polysorbate 80, Edetate Disodium, Silicon dioxide (syloid), Methylparaben, White petrolatum, Isopropyl Myristate, Cetyl Alcohol and Glyceryl Monostearate. ZEP4 1% cream having pH 4.5 and comprising: Propylene glycol, Glycerin, Polysorbate 80, EDTA Disodium, Xanthan Gum, Silicon dioxide (syloid), Methylparaben, White petrolatum, Isopropyl Myristate, Cetyl Alcohol, Stearyl Alcohol, and Glyceryl Monostearate (kolliwax).

C[C@@H](O)[C@H](NC(=O)[C@H](Cc1c[nH]c2ccccc12)NC(=O)[C@H](CC(N)=O)NC(=O)[C@@H]1CCC(=O)N1)C(=O)O [ZEP4, pGlu-Asn-Trp-Thr-OH] (HELM PEPTIDE1{[Glp].N.W.T}$$$$V2.0)
TNF alpha (TNF alpha [1]; Table 2: ZEP4 50 μg/ml, LPS 100 ng/ml, palmitic acid 100 μM): 133.93 pg/mL | % reduction of TNF alpha (TNF alpha [1]; Table 2: ZEP4 50 μg/ml, LPS 100 ng/ml, palmitic acid 100 μM, relative to LPS and PA 100 μM): 67.8**** % | TNF alpha (TNF alpha [1]; Table 2: ZEP4 50 μg/ml, LPS 100 ng/ml, palmitic acid 200 μM): 167.52 pg/mL | % reduction of TNF alpha (TNF alpha [1]; Table 2: ZEP4 50 μg/ml, LPS 100 ng/ml, palmitic acid 200 μM, relative to LPS and PA 200 μM): 63.7**** % | TNF alpha (TNF alpha [1]; Table 2: ZEP4 50 μg/ml, LPS 100 ng/ml, palmitic acid 400 μM): 252.177 pg/mL | % reduction of TNF alpha (TNF alpha [1]; Table 2: ZEP4 50 μg/ml, LPS 100 ng/ml, palmitic acid 400 μM, relative to LPS and PA 400 μM): 57.5**** % | TNF alpha (TNF alpha [1]; peptide 3.125 μg/ml, LPS 100 ng/mL, palmitic acid 200 μM, 24 hours): 97.79 pg/mL | % reduction of TNF alpha (TNF alpha [1]; peptide 3.125 μg/ml, LPS 100 ng/mL, palmitic acid 200 μM, relative to cells treated with LPS and PA): 70.6% | TNF alpha (TNF alpha [1]; peptide 6.25 μg/ml, LPS 100 ng/mL, palmitic acid 200 μM, 24 hours): 89.83 pg/mL | % reduction of TNF alpha (TNF alpha [1]; peptide 6.25 μg/ml, LPS 100 ng/mL, palmitic acid 200 μM, relative to cells treated with LPS and PA): 73.0% | TNF alpha (TNF alpha [1]; peptide 12.5 μg/ml, LPS 100 ng/mL, palmitic acid 200 μM, 24 hours): 93.12 pg/mL | % reduction of TNF alpha (TNF alpha [1]; peptide 12.5 μg/ml, LPS 100 ng/mL, palmitic acid 200 μM, relative to cells treated with LPS and PA): 72.0% | TNF alpha (TNF alpha [1]; peptide 25 μg/ml, LPS 100 ng/mL, palmitic acid 200 μM, 24 hours): 115.58 pg/mL | % reduction of TNF alpha (TNF alpha [1]; peptide 25 μg/ml, LPS 100 ng/mL, palmitic acid 200 μM, relative to cells treated with LPS and PA): 65.2% | TNF alpha (TNF alpha [1]; peptide 50 μg/ml, LPS 100 ng/mL, palmitic acid 200 μM, 24 hours): 76.23 pg/mL | % reduction of TNF alpha (TNF alpha [1]; peptide 50 μg/ml, LPS 100 ng/mL, palmitic acid 200 μM, relative to cells treated with LPS and PA): 77.0% | TNF alpha (TNF alpha [1]; peptide 100 μg/ml, LPS 100 ng/mL, palmitic acid 200 μM, 24 hours): 211.68 pg/mL | % reduction of TNF alpha (TNF alpha [1]; peptide 100 μg/ml, LPS 100 ng/mL, palmitic acid 200 μM, relative to cells treated with LPS and PA): 36.3% | TNF alpha (TNF alpha [1]; peptide control: peptide 100 μg/ml, no LPS, no palmitic acid): 0 pg/mL | Scaling: period of reduction ([2]; 1% cream topical, 50 mg/kg, scaling score of back skin): from days 14 to 24 | Significant difference on back thickness vs. control group 1 ([2]; day 14): −13.5% | Right ear thickness, significant difference in comparison to control ([2]; days 20, 22 and 28): −12.3 to −16.0% | Erythema scoring: days with a significant difference ([2]; vs control group): days 12, 16, 22 and 24 | total score: days with significant difference ([2]; vs control group): days 12-20, 24 and 28 | TNF alpha levels / production in LPS treated human keratinocytes (in words) (TNF alpha [3]): effectively diminished | tolerability ([4]; 50 mg/kg topical to atopic dermatitis induced mice): well tolerated | Bodyweights in comparison to the excipient ([4]; day 8 to day 28): behaved normally
